Reference: patent publication US20020065314A1, “COMPOSITIONS AND METHOD FOR STIMULATING HAIR GROWTH” (priority 1995, published 2002)
Entries after “also recorded” stand apart in the source; their conditions may differ.

Key:
C57BL/KsJ db/+ mice [1] = test: Application to full-thickness incisional and excisional wounds; type: in vivo, mouse
Procedure: An incisional, full-thickness wound, about 2 cm long was made through the dorsal skin of five mice (strain C57BL/KsJ db/+). A single dose of about 10 mg of n-butyl cyanoacrylate (in 10 μl of Nexaband^R Liquid) was applied to the bottom of the wound, and the wound closed with two surgical clips. Control animals which received 10 μl of phosphate buffered saline (PBS: 0.144 g/l KH2PO4, 9.0 g/l NaCl, 0.795 g/l Na2HPO4.7H2O; pH 7.2) were processed identically. During the period of 1-90 days post application, the effect of n-butyl cyanoacrylate treatment was examined by macroscopic observation.
In a group of five C57BL/KsJ db/+ mice, a full-thickness excisional wound was made with a biopunch (6 mm diameter) on the dorsal skin. A single dose of 9 mg of n-butyl cyanoacrylate (in 10 μl of Nexaband^R Liquid) was applied to the bottom of the wound, and the wound was left open. Control animals which received 10 μl of PBS were treated identically.

[2] = system: C57BL/KsJ db/+ and C57BL/KsJ db/db mice; test: Dose of n-butyl cyanoacrylate and response of hair growth (macroscopic score); type: in vivo, mouse
Procedure: The effect of n-butyl cyanoacrylate concentration on stimulation of hair growth was investigated as follows. Five mice of each strains C57BL/KsJ db/+ and C57BL/KsJ db/db were shaved on the dorsum, treated with a single topical application of either undiluted Nexaband^R Liquid (containing about 10 mg of n-butyl cyanoacrylate per 10 μl), or Nexaband^R Liquid diluted to 50% or 25% with vegetable oil. Hair growth was macroscopically scored at 49, 61 and 86 days after treatment.

Sprague Dawley rats = test: Single topical application, hair growth in rats; type: in vivo, rat
Excerpt: (§1) At the gross level, the hair growth in the shaved treated area occurs at 8-12 days and reaches full length at about 14-20 days post treatment, however, the remainder of the shaved untreated area remains hairless and the hair follicles small (in telogen (resting) phase)(5A-5B). The response of hair growth to the n-butyl cyanoacrylate stimulus is very similar in 6 other strains of mice (C57BL/KsJ +/+, C57BL/KsJ db/db, Balb/cBYj +/+, Balb/cBYj nu/+, HRS/J hr/+, and RHJ/LeJ hr^rh-j/+) (FIGS. 6A-6C) and Sprague Dawley rats (FIGS. 7A-7B). The hair growth rate in the fastest growth period (at about 10-15 days post treatment) reaches 1 mm per day. This is entirely consistent with the microscopically observed stimulation of hair follicles following treatment.

[3] = system: C57BL/KsJ db/+ mice and 6 other strains of mice; test: Single topical application to shaved dorsum of mice: cutaneous changes and hair growth; type: in vivo, mouse
Excerpt: The dorsal aspect of C57BL/KsJ db/+ female mice was shaved and a single topical dose of n-butyl cyanoacrylate (formulated as Nexaband^R Liquid) was applied. […] At this early stage some of these new aggregates form laminae and appear to constitute neo-angiogenesis. At day 1 post application, the gross appearance of inflammation was still apparent, and there was microscopic evidence for the formation of a lumen from an aggregate of cells in the subcutaneous layer. […] These changes were only observed in the treated area. […] Between eight and 12 days post application, hair follicles and new hair were present at the sites of application; the remainder of the shaved area remained hairless. Epidermal and dermal thickening and new hair follicle development in treated skin were pronounced until days 10-20 post application (FIGS. 3A-3B), at which time large mature hair follicles traversed the entire thickness of the dermis and subcutaneous layer (FIG. 3C). Hair follicle density reached a maximum level at about days 20-30 post application, at which time the epithelium and connective tissue elements began to return to their pre-treatment appearance (FIGS. 4A-4B).
as §1

[4] = system: C57BL/KsJ db/+ and C57BL/KsJ db/db mice; test: Effect of isobutyl cyanoacrylate on hair growth, topical; type: in vivo, mouse; conditions: C57BL/KsJ db/db, 10 μl cm^−2 topical
Procedure: The following experiment was performed to identify the effect of isobutyl cyanoacrylate, a structural analog of n-butyl cyanoacrylate, on hair growth. The shaved backs of C57BL/KsJ db/+ and C57BL/KsJ db/db mice were treated topically at a dose of 10 μl cm^−2 with either isobutyl cyanoacrylate (Sigma Chemical Co., St Louis, Mo.) or n-butyl cyanoacrylate.

C57BL/KsJ db/+ mice [5] = test: Subdermal application by subcutaneous injection; type: in vivo, mouse
Procedure: In another example, 20 μl of n-butyl cyanoacrylate was applied subdermally by subcutaneous injection to a group of C57BL/KsJ db/+ mice.

TGF-β2,3 = test: Immunohistochemistry of growth factors in treated skin; type: in vivo, mouse; conditions: throughout the study period
Procedure: Forty stock female mice of strain C57BL/KsJ db/+ at eight weeks of age were treated with a single dose of n-butyl cyanoacrylate applied topically to the shaved dorsum. Animals were sacrificed at days 4, 6, 8, 10, 12, 14, 16, 18, 20, and 22 post-treatment, and skin samples were excised to yield an area of n-butyl cyanoacrylate treated skin together with a contiguous, adjacent sample of untreated skin. In preparation for immunohistochemistry, samples were washed in PBS, fixed in 10% formalin, and secondarily fixed in Bouin's solution prior to paraffin embedding. Multiple 4-5 μm sections were placed on slides pre-coated with 3-aminopropylethoxysilane.
The following primary antibodies were used: anti-TGF-β1 neutralizing antibody; anti-TGF-β2,3; and anti-EGF receptor.

[6] = 25%, C57BL/KsJ db/+, 49 days after treatment
[7] = 25%, C57BL/KsJ db/+, 61 days after treatment
[8] = 25%, C57BL/KsJ db/+, 86 days after treatment
[9] = 25%, C57BL/KsJ db/db, 49 days after treatment
[10] = 25%, C57BL/KsJ db/db, 61 days after treatment
[11] = 25%, C57BL/KsJ db/db, 86 days after treatment
[12] = 50%, C57BL/KsJ db/db, 49 days after treatment
[13] = 50%, C57BL/KsJ db/db, 61 days after treatment
[14] = 50%, C57BL/KsJ db/db, 86 days after treatment
[15] = C57BL/KsJ db/+, post application

**Q.** Which results are given for `C=C(C#N)C(=O)OCCCC` [n-butyl cyanoacrylate]?
**A.** microscopic examination of wound site (C57BL/KsJ db/+ mice [1]; full thickness incisional or excisional wound): induced de novo hair follicle formation in the subcutaneous adipose layer, in the dermis, as well as in the wound site; hair growth at wound (photograph) (C57BL/KsJ db/+ mice [1]; incision wound, day 17 post treatment): profound hair growth along the linear wound margin; hair growth at wound (C57BL/KsJ db/+ mice [1]; incisional and excisional wounds): stimulated hair growth along the wound margin; histology of wound site (C57BL/KsJ db/+ mice [1]; incisional wound, day 17 post treatment): development of many new hair follicles and little scar tissue in the wound site; Number of Animals Exhibiting Hair Growth, Score 0 [2, 6]: 4; Number of Animals Exhibiting Hair Growth, Score 1+ [2, 6]: 1; Number of Animals Exhibiting Hair Growth, Score 0 [2, 7]: 2; Number of Animals Exhibiting Hair Growth, Score 1+ [2, 7]: 3; Number of Animals Exhibiting Hair Growth, Score 0 [2, 8]: 3; Number of Animals Exhibiting Hair Growth, Score 1+ [2, 8]: 2; Number of Animals Exhibiting Hair Growth, Score 0 [2, 9]: 2; Number of Animals Exhibiting Hair Growth, Score 2+ [2, 9]: 2; Number of Animals Exhibiting Hair Growth, Score 3+ [2, 9]: 1; Number of Animals Exhibiting Hair Growth, Score 0 [2, 10]: 2; Number of Animals Exhibiting Hair Growth, Score 1+ [2, 10]: 1; Number of Animals Exhibiting Hair Growth, Score 2+ [2, 10]: 1; Number of Animals Exhibiting Hair Growth, Score 3+ [2, 10]: 1; Number of Animals Exhibiting Hair Growth, Score 2+ [2, 11]: 3; Number of Animals Exhibiting Hair Growth, Score 3+ [2, 11]: 2; Number of Animals Exhibiting Hair Growth, Score 2+ [2, 12]: 2; Number of Animals Exhibiting Hair Growth, Score 3+ [2, 12]: 3; Number of Animals Exhibiting Hair Growth, Score 2+ [2, 13]: 1; Number of Animals Exhibiting Hair Growth, Score 3+ [2, 13]: 4; Number of Animals Exhibiting Hair Growth, Score 2+ [2, 14]: 2; Number of Animals Exhibiting Hair Growth, Score 3+ [2, 14]: 3; Number of Animals Exhibiting Hair Growth, Score 3+ ([2]; 100% (10 mg/10 μl), C57BL/KsJ db/+, 49 days after treatment): 5; Number of Animals Exhibiting Hair Growth, Score 3+ ([2]; 100% (10 mg/10 μl), C57BL/KsJ db/+, 61 days after treatment): 5; Number of Animals Exhibiting Hair Growth, Score 3+ ([2]; 100% (10 mg/10 μl), C57BL/KsJ db/+, 86 days after treatment): 5; Number of Animals Exhibiting Hair Growth, Score 3+ ([2]; 100% (10 mg/10 μl), C57BL/KsJ db/db, 49 days after treatment): 5; Number of Animals Exhibiting Hair Growth, Score 3+ ([2]; 100% (10 mg/10 μl), C57BL/KsJ db/db, 61 days after treatment): 5; Number of Animals Exhibiting Hair Growth, Score 3+ ([2]; 100% (10 mg/10 μl), C57BL/KsJ db/db, 86 days after treatment): 5; dose dependence of induced hair growth ([2]; undiluted, 50%, 25%): dose-dependent; histology, hair follicle density treated vs untreated area (Sprague Dawley rats; Sprague Dawley rat): much higher density of hair follicles in treated area; hair growth on dorsum (photograph) (Sprague Dawley rats; Sprague Dawley rat, 23 days post application): hair growth appears as a rectangle pattern; time over which no shedding of induced hair has been found (Sprague Dawley rats; rats, post treatment): over 210 days; response of hair growth compared with C57BL/KsJ db/+ ([3]; 6 other strains of mice and Sprague Dawley rats): very similar; hair growth on dorsum (photograph) ([3]; Balb/cBYj nu/+, 19 days post application): hair growth appears in a circle pattern; hair follicle number, maximum increase treated vs untreated areas ([3]; C57BL/KsJ db/+): about 2 fold; histology of treated skin ([3]; C57BL/KsJ db/+, 16 days following application): large mature hair follicles traversing the entire thickness of the skin; hair growth on dorsum (photograph) ([3]; C57BL/KsJ db/+, 17 days post application): triangle pattern of hair growth; histology of treated skin vs adjacent untreated area ([3]; C57BL/KsJ db/+, 19 days after topical treatment): high concentration of large mature hair follicles; scanning electron micrograph, treated vs adjacent untreated area ([3]; C57BL/KsJ db/+, 23 days after treatment): higher density of hairs and deeper hair roots in the treated area; histology of treated skin ([3]; C57BL/KsJ db/+, day 3 post application): multilayered epidermis, thickened dermis, and epidermal peg elongation; also recorded: evidence of trichogenesis was clearly seen at the treatment site; histology of treated skin ([3]; C57BL/KsJ db/+, day 10 post application): increase in the number of mature hair follicles; also recorded: new epithelial pegs had developed into mature hair follicles; thickness of the dermis layer, increase treated vs untreated areas ([3]; C57BL/KsJ db/+, days 16-20 post treatment): 1.5 fold; thickness of the dermis layer, treated vs untreated areas ([3]; C57BL/KsJ db/+, first day after treatment): about 1.3 fold; time of maximum hair follicle density [3, 15]: 20 to 30 days; time until which epidermal and dermal thickening and new hair follicle development were pronounced [3, 15]: 10 to 20 days; time at which dermis returns to normal thickness ([3]; C57BL/KsJ db/+, post treatment): about 70 days; time at which epidermis returns to normal thickness ([3]; C57BL/KsJ db/+, post treatment): about 40 days; time at which hair reaches full length ([3]; C57BL/KsJ db/+, post treatment): 14 to 20 days; thickness of the epidermis layer, maximum increase in treated areas vs maximum level in untreated areas ([3]; C57BL/KsJ db/+, topical): about 2 fold; early change of treated skin ([3]; C57BL/KsJ db/+, within six hours of application): slight thickening of the treated skin; time at which new hair follicle formation occurs in treated area ([3]; after treatment): 2 to 3 days; hair growth rate in the fastest growth period ([3]; at about 10-15 days post treatment): 1 mm per day; hair growth on dorsum (photograph) ([3]; diabetic C57BL/KsJ db/db, 27 days post application): hair growth appears in a rectangle pattern; hair follicle number, maximum in treated vs untreated areas ([3]; diabetic strain C57BL/KsJ db/db): about 4 fold; time hair regrowth in treated areas remains unchanged while shaved untreated areas are hairless ([3]; genetically healing-impaired diabetic mice, post treatment): more than 216 days; time over which no shedding of induced hair has been found ([3]; mice, post treatment): > 335 days; length of new hairs over those in adjacent untreated area ([3]; mouse, in vivo): 1-2 mm; localization of the hair growth response ([3]; mouse, in vivo): completely localized to the area where the stimulator is applied; time at which hair growth occurs (is seen) in shaved treated area ([3]; post treatment, single topical dose): 8 to 12 days; hair regrowth after repeated shaving ([3]; single application, area subsequently shaved three times at 20-day intervals): the hair keeps regrowing in the treated areas; Hair growth [4]: 3+ (high hair regeneration with an area larger than 50% of the treated area); histology after subcutaneous injection (C57BL/KsJ db/+ mice [5]; 68 days after subcutaneous injection): development of new hair follicles in the treated site; histology after subcutaneous injection vs untreated site (C57BL/KsJ db/+ mice [5]; subcutaneous injection, 20 μl): induces de novo hair follicle formation and the thickening of full-thickness skin; reproducibility of hair growth induced (mice and rats; 10 mg/10 μl cm^−2, more than 700 normal adult mice and rats, and 80 diabetic (db/db) animals): 100%; side effect, toxic effect or tumor-like tissue formation after the treatment (mice and rats; in vivo): No any side effect or toxic effect or tumor-like tissue formation after the treatment has been observed except for a mild inflammation shortly after application; hair growth in normal intact skin, in skin of animals pre-treated with anticancer drugs, and at edges of wounds (mice and rats; two species (rat and mouse), seven strains of mouse): stimulate hair growth; intensity of TGF-β2,3 stain in the epidermis (TGF-β2,3): greater than that of TGF-β1
